In brackets after ≈: the same amount, converted by molar mass.

The solubility (thermodynamic) is the concentration in solution at equilibrium with solid.

Series [1] can be described thus: Equilibrium solubility, shake flask method (European Pharmacopeia). The series is classed as physicochemical. The note with it: for Equilibrium solubility / solubility thermodynamic at 24 h: shaking at 400 rpm for 24 hours; for solubility thermodynamic at 24 h: aqueous buffer, 37 °C, thermodynamic from solid. The protocol: As used herein, the term "equilibrium solubility" refers to the maximum solubility of apixaban in various aqueous media of buffers of pH 1.2, 4.5 and 6.8 at 37 °C after 24 hours. The shaking is carried out at 400 rpm.
Equilibrium solubility of crystalline polymorphic Form A of apixaban and references apixaban Form N-1 was performed in various aqueous media of buffers of pH 1.2, 4.5 and 6.8 at 37°C. The solubility was measured using "shake flask" method described in European Pharmacopeia. The shaking was carried out at 400 RMP for 24 hours. Table 2: Equilibrium solubility of crystalline polymorphic Form A of apixaban and reference apixaban Form N-1 in various aqueous media of buffers.
Equilibrium solubility of crystalline polymorphic Form A of apixaban and references apixaban Form N-1 was performed in various aqueous media of buffers of pH 1.2, 4.5 and 6.8 at 37°C. The solubility was measured using "shake flask" method described in European Pharmacopeia. The shaking was carried out at 400 rmp for 24 hours. Table 2: Equilibrium solubility of crystalline polymorphic Form A of apixaban and reference apixaban Form N-1 in various aqueous media of buffers.

The nature of series [2]: Physical stability of the crystalline form on storage at room atmosphere conditions. The note with it: after 8 months stored at room atmosphere conditions. The series is classed as physicochemical. An excerpt: For a pharmaceutical use a solubility of the form which active pharmaceutical ingredient forms is a criterion of exceptional importance under certain circumstances depending on the choice of formulation or the choice of manufacturing process. For drugs which are to be taken orally it is, in general, very important that active pharmaceutical ingredients are sufficiently soluble and bioavailable. Apixaban is such a drug, i.e. characterized by a low solubility in aqueous media. Unexpectedly, improved solubility of crystalline polymorph Form A of apixaban contributes to sufficient bioavailability of apixaban containing drugs. At the same time, a high physical stability of crystalline Form A is preserved.

For the molecule `COc1ccc(-n2nc(C(N)=O)c3c2C(=O)N(c2ccc(N4CCCCC4=O)cc2)CC3)cc1` [Form A, 1-(4-methoxyphenyl)-7-oxo-6-(4-(2-oxopiperidin-1-yl)phenyl)-4,5,6,7-tetrahydro-1H-pyrazolo[3,4-c]pyridine-3-carboxamide], the Equilibrium solubility worked out at 58 µg/mL in series [1] (aqueous buffer pH 1.2, 37°C); 74 µg/mL in series [1] (aqueous buffer pH 4.5, 37°C); 72 µg/mL in series [1] (aqueous buffer pH 6.8, 37°C). For the same molecule, the “comparison of equilibrium solubility with reference polymorph Form N-1” value in series [1] (aqueous buffers pH 1.2, 4.5 and 6.8, 37°C (Table 2)) is “higher solubility”. Further, the “physical stability (crystalline structure)” value in series [2] is “the crystalline structure remains unchanged”.

For the molecule `COc1ccc(-n2nc(C(N)=O)c3c2C(=O)N(c2ccc(N4CCCCC4=O)cc2)CC3)cc1` [Form N-1, 1-(4-methoxyphenyl)-7-oxo-6-(4-(2-oxopiperidin-1-yl)phenyl)-4,5,6,7-tetrahydro-1H-pyrazolo[3,4-c]pyridine-3-carboxamide, reference compound], the Equilibrium solubility in series [1] (aqueous buffer pH 6.8, 37°C) turned out to be 30 µg/mL. In addition, the solubility (thermodynamic) at 24 h in series [1] (pH 1.2, simulated gastric fluid, aqueous buffer pH 1.2, 37°C) is 44 µg/mL (≈ 95.8 µM); in series [1] (pH 4.5, aqueous buffer, aqueous buffer pH 4.5, 37°C), 53 µg/mL (≈ 115 µM).

(Values after patent EP2752414A1, “Crystalline form of apixaban” (Sandoz AG, priority 2013, dated 2014).)
